Key:
[1] = tested on: Zika virus; experiment: Zika virus plaque assay on Vero cells; assay type: cell-based; details: Vero cells infected with Zika virus
[2] = tested on: Zika virus; experiment: Percent infectivity of Zika-infected VERO cells (FIG. 5); assay type: cell-based; details: FIGS. 4 and 5; 5 μM and 1 μM

## dextran 3-[(2-aminoethyl)thio]propyl 17-carboxy-10,13,16-tris(carboxymethyl)-8-oxo-4-thia-7,10,13,16-tetraazaheptadec-1-yl 3-[[2-[[1-imino-2-(D-mannopyranosylthio)ethyl]amino]ethyl]thio]propyl ether complexes [Tilmanocept]
[1]
  Reduction of Zika virus in infected Vero cells: 99.9%
[2]
  Effect on Zika infection of VERO cells: no effect

Reference: patent US12005122B2, “Compounds and methods for diagnosis and treatment of viral infections” (priority 2016, dated 2024)
